Assay results from publication PMC9818021, “Targets, Mechanisms and Cytotoxicity of Half-Sandwich Ir(III) Complexes Are Modulated by Structural Modifications on the Benzazole Ancillary Ligand” (Cancers, 2022).

Assays:
[1] = test system: CHOP; assay: CHOP induction (CHOP::GFP plasmid); format: cell-based, human; conditions: HEK293, 9.7 µM, 24 h time-lapse
Protocol: CHOP induction. HEK293 cells were seeded at 8 × 10^5 cell/well in 24-well plates and transfected with CHOP::GFP plasmid (Addgene plasmid #21898; http://n2t.net/addgene:21898; RRID:Addgene_21898, 10 November 2022) using the transfection reagent DreamFectTM Gold (OZ Bioscience, Cat. N. º LM80250). After 24 h incubation, the treatments were added: 1[C,NH] 9.7 µM; tunicamycin 0.5 µM as positive control. Cells were stained with propidium iodide (1 µg/mL). Time-lapse images were acquired every 30 min for 24 h.

[2] = test system: A549 cells; assay: 8-OHdG DNA damage quantification; format: cell-based, human; conditions: 16 μM, 4 h
Protocol: (§1) DNA damage was measured using EpiQuik 8-OHdG DNA Damage Quantification Direct Kit (colorimetric) (Fischer, Waltham, MA, USA, P600396); The mitochondrial cytochrome C release was evaluated using the “Millipore’s FlowCellect Cytochrome C Kit (Millipore, FCCH100110)”. Lactate dehydrogenase activity release was measured in the culture medium using Cytotoxicity Detection Kit (Roche Diagnostic, Barcelona, Spain, 11 644 793 001). Protein synthesis was determined using Click-iT Plus O-propargyl-puromycin (OPP) Protein Synthesis Assay Kit (Invitrogen™, Waltham, MA, USA). Measurement of GSH/GSSG was determined with GSH/GSSG-Glo Assay (Promega, V6611). Measurements of OCR and ECAR with Seahorse XFp (Agilent Technologies) were determined using the XFp Cell Mito Stress Test Kit (103010-100) and XFp Glycolysis Stress Test Kit (103017-100). ATP measurement was determined with Cell Titer-Glo Luminescent Cell Viability Assay (Promega, Madison, WI, USA, G7570). Determination of DNA damage using phosphorylated H2AX measurement were performed as previously described. Cardiolipin oxidation using the fluorophore Nonyl Acridine Orange (NAO, Thermo Scientific, A1372) was performed as described. Cell viability was determined by Hoechst inclusion and Propidium iodide (PI) exclusion by standard protocols. TEM analysis were performed as described. […]

[3] = Drug uptake by cells (ICP-MS); format: cell-based; conditions: 16 μM, 400,000 cells, 4 h
Protocol: 1[C,NH] reduced the lung tumor burden. Prior the performance of in vivo studies, the drug uptake was determined. The amount of 1[C,NH] entering the cell was estimated after administration of 16 μM of 1[C,NH] to 400,000 cells. The intracellular iridium content was assessed after 4 h by ICP-MS, and the percentage of drug taken up by cells was 1.7%. Then, acute toxicity and bio distribution of 1[C,NH] was studied in healthy mice (BALB/c). […] Antitumor efficacy was studied using an orthotopic model of lung cancer in nude mice (Figure 8B). A549-luc cells (A549 cells marked with luciferase) were used to induce the tumor and 20 days after the injection of cells, we proceeded to the administration of 4 doses (0.9 mg/kg) of 1[C,NH] on alternate days. […] However, we cannot exclude the appearance of toxic effects after repeated administrations over longer periods of time. […] To differentiate the effect of 1[C,NH] on the primary tumor and on the affected nodes, at day 37, the animals were sacrificed, and luciferase activity, as a marker on the presence of tumor cells, was measured. […] Moreover, lung mice were stained with a monoclonal antibody against a human cytokeratin (only A549 tumor cells of human origin were stained) (Figure 8D). […] In addition, other factors influence the efficacy of a drug on the primary tumor and not on the metastasis, cell-cell interactions, matrix in the nodes, etc. […]

[4] = test system: A549-luc orthotopic lung tumor in athymic nude mice; assay: Orthotopic lung cancer model (A549-luc); format: in vivo, mouse
Protocol: Orthotopic lung cancer model. Athymic nude mice were used. The model was developed following the protocol previously described. On day 20, treatment with the metal complex was started, and 4 doses were given every other day. Tumor growth was measured in vivo by luminescence (IVIS® Spectrum) on the days that the complexes were not administered, ending the experiment on day 37 with the sacrifice of the animal and the removal of organs. Organ indicators of metastases, lungs, and mediastinal lymph nodes were processed as previously described. Histological analyzes were performed as described.

[5] = test system: A549 cells; assay: Hoechst/propidium iodide staining; format: cell-based, human; conditions: 16 μM
Protocol: as §1

[6] = test system: A549 cells; assay: ATP levels (Cell Titer-Glo); format: cell-based, human; conditions: 16 µM, 8 h incubation
Protocol: as §1

[7] = test system: A549 cells; assay: Viability of A549 proliferant vs quiescent cells; format: cell-based, human; conditions: 24 h
Protocol: Cytotoxicity. MTT Assay and IC50 estimation. The cytotoxicity of 1[C,NH-Cl], 2[C,NMe-Cl], 3[N,NH-Cl]Cl, 4[N,NMe-Cl]Cl, 5[CNH2,NH-Cl]Cl, 6[CNH2,S-Cl]Cl, 7[CO,NH-Cl] and 8[CO,S-Cl] in A2780, A2780cis, SW480 and A549 carcinoma cells was evaluated by the MTT colorimetric assay. Cells were seeded in 96-well plates at 5000 cells per well and incubated at 37 °C, 5% CO2. […] Final DMSO concentration was kept below 0.7% in wells. For a negative control, one sequence of cells was left untreated and for vehicle control, cells treated with DMSO were included. For cell viability experiments preincubating with NAC (N-Acetyl-L-Cysteine), the cells were pre-treated with NAC, 10 mM for 2 h before the incubation with complex 1[C,NH-Cl] for 24 h. Then, the medium was removed from the wells, and 100 µL MTT (5 mg/mL) was added. After an incubation time of 4 h, 100 μL of solubilizing detergent solution (SDS, 10% in HCL 0.01 M) was added and kept in the incubator overnight. Cell growth inhibition was detected by measuring the absorbance of each well at 595 nm using a BioTek Cytation5 microplate reader. Each test was repeated in quadruplicate in three independent experiments for each cell line. The percentage of survival cells was calculated using absorbance measurements compared with control and the IC50 estimation using Graph Pad Prism version 6.01.

[8] = test system: A549 cells; assay: Cardiolipin oxidation (NAO, flow cytometry); format: cell-based, human; conditions: 4 h
Protocol: as §1

[9] = 4 doses (0.9 mg/kg) on alternate days

## Cc1c(C)c(C)[c-](C)c1C.[Cl][Ir]1[c]2ccccc2-c2[nH]c3ccccc3[n+]21 [1[C,NH], [(η^5-Cp*)IrCl(κ^2-N,C-pbim)]]
[1]
  CHOP expression: increased expression
[2]
  8-OHdG levels: increased after 4 h
[3]
  Percentage of drug taken up by cells: 1.7%
[4]; [9]
  Body weight of treated mice: did not lose weight
  Necropsy findings in non-tumor tissues: no pathological evidence of relevance was detected in non-tumor tissues
[4]; 4 doses (0.9 mg/kg), day 37
  Luciferase activity in mediastinal nodes: lack of effect
  Luciferase activity in the primary tumor (lung extracts): significantly reduced luciferase activity in the primary tumor
  Size of tumor foci (anti-CK7 immunohistochemistry): strong effect on reducing the size of tumor foci
[5]
  PI positive cells: absent during the first 6 h of treatment
[6]
  Decrease on ATP levels: around 35%
[7]; A549 non-proliferating (quiescent) condition
  IC50: 17 µM
[7]; A549 proliferating condition
  IC50: 9.5 µM
[8]
  Cardiolipin oxidation: induced CL oxidation
